System: central benzodiazepine receptors
Experiment: Central benzodiazepine receptor binding (test of Speth et al.)
Conditions: 1000 nM of the compound
Method in brief: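 Values are percent inhibition of central benzodiazepine receptor binding at 1000 nM compound (initial single-point screen at 1.0E-09, 1.0E-07 and 1.0E-05 M). Speth et al. binding test; nonspecific binding defined with excess unlabelled ligand and subtracted from total.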

Row | SMILES | % Inhibition at 1000 nM for CBZD
1 | Cc1ccc(-c2nc3c(Cl)cc(Cl)cn3c2Cn2nc(C)ccc2=O)cc1 [Compound 117, 2-(6,8-Dichloro-2-p-tolyl-imidazo[1,2-a]pyridin-3-ylmethyl)-6-methyl-2H-pyridazin-3-one] | ++ (percentage of inhibition of central BZD site binding is greater than 80% in the presence of 1000 nM of the compound)
2 | Cc1ccc(-c2nc3ccc(C)cn3c2CNc2nc3ccccc3n2C)cc1 [Compound 154, 1-methyl-N-((6-methyl-2-p-tolylH-imidazo[1,2-a]pyridin-3-yl)methyl)-1H-benzo[d]imidazol-2-amine] | ++ (percentage of inhibition of central BZD site binding is greater than 80% in the presence of 1000 nM of the compound)
3 | Cc1ccc(-c2nc3ccc(C)cn3c2Cn2ccnc2-c2ccccc2)cc1 [Compound 13, 6-Methyl-3-((2-phenyl-1H-imidazol-1-yl)methyl)-2-p-tolylH-imidazo[1,2-a]pyridine] | + (percentage of inhibition of central BZD site binding is greater than 50% but less than 80% in the presence of 1000 nM of the compound)
4 | O=C1COc2ccccc2N1Cc1c(-c2ccc(Cl)cc2)nc2ccccn12 [Compound 124, 4-((2-(4-chlorophenyl)imidazo[1,2-a]pyridin-3-yl)methyl)-2H-benzo[b][1,4]oxazin-3(4H)-one] | ++ (percentage of inhibition of central BZD site binding is greater than 80% in the presence of 1000 nM of the compound)
5 | O=c1ccccn1Cc1c(-c2ccc(Cl)cc2)nc2ccc(Cl)cn12 [Compound 104, 1-((6-chloro-2-(4-chlorophenyl)H-imidazo[1,2-a]pyridin-3-yl)methyl)pyridin-2(1H)-one] | ++ (percentage of inhibition of central BZD site binding is greater than 80% in the presence of 1000 nM of the compound)
6 | Cc1ccc(-c2nc3ccc(C)cn3c2CNc2cc(C)ns2)cc1 [Compound 151, 3-methyl-N-((6-methyl-2-p-tolylH-imidazo[1,2-a]pyridin-3-yl)methyl)isothiazol-5-amine] | ++ (percentage of inhibition of central BZD site binding is greater than 80% in the presence of 1000 nM of the compound)
7 | Clc1ccc(-c2nc3ccc(Cl)cn3c2Cn2cncn2)cc1 [Compound 18, 3-((1H-1,2,4-triazol-1-yl)methyl)-6-chloro-2-(4-chlorophenyl)H-imidazo[1,2-a]pyridine] | ++ (percentage of inhibition of central BZD site binding is greater than 80% in the presence of 1000 nM of the compound)
8 | Cc1ccc(-c2nc3ccc(C)cn3c2Cn2cnc3ccccc32)cc1 [Compound 16, 1-((6-Methyl-2-p-tolyl-H-imidazo[1,2-a]pyridin-3-yl)methyl)-1H-benzo[d]imidazole] | ++ (percentage of inhibition of central BZD site binding is greater than 80% in the presence of 1000 nM of the compound)
9 | O=C1C=C(N2CCCCC2)CN1Cc1c(-c2ccc(Cl)cc2)nc2ccccn12 [Compound 239, 1-((2-(4-chlorophenyl)imidazo[1,2-a]pyridin-3-yl)methyl)-4-(piperidin-1-yl)-1H-pyrrol-2(5H)-one] | ++ (percentage of inhibition of central BZD site binding is greater than 80% in the presence of 1000 nM of the compound)
10 | Cc1ccc(-c2nc3ccc(C)cn3c2CSc2nc[nH]n2)cc1 [Compound 177, 6-Methyl-2-p-tolyl-3-(1H-[1,2,4]triazol-3-ylsulfanylmethyl)-imidazo[1,2-a]pyridine] | + (percentage of inhibition of central BZD site binding is greater than 50% but less than 80% in the presence of 1000 nM of the compound)
11 | CCOC(=O)c1cc(-c2ccco2)nn1Cc1c(-c2ccc(Cl)cc2)nc2ccccn12 [Compound 31, Ethyl 1-((2-(4-chlorophenyl)imidazo[1,2-a]pyridin-3-yl)methyl)-3-(furan-2-yl)-1H-pyrazole-5-carboxylate] | + (percentage of inhibition of central BZD site binding is greater than 50% but less than 80% in the presence of 1000 nM of the compound)
12 | O=C1CCN1Cc1c(-c2ccc(Cl)cc2)nc2ccc(Cl)cn12 [Compound 113, 1-[6-Chloro-2-(4-chloro-phenyl)-imidazo[1,2-a]pyridin-3-ylmethyl]-azetidin-2-one] | ++ (percentage of inhibition of central BZD site binding is greater than 80% in the presence of 1000 nM of the compound)
13 | Cc1ccc(-c2nc3ccc(C)cn3c2CSc2ccccc2)cc1 [Compound 163, 6-Methyl-3-phenylsulfanylmethyl-2-p-tolyl-imidazo[1,2-a]pyridine] | ++ (percentage of inhibition of central BZD site binding is greater than 80% in the presence of 1000 nM of the compound)
14 | O=c1ccc(Cl)cn1Cc1c(-c2ccc(Cl)cc2)nc2ccc(Cl)cn12 [Compound 108, 5-chloro-1-((6-chloro-2-(4-chlorophenyl)H-imidazo[1,2-a]pyridin-3-yl)methyl)pyridin-2(1H)-one] | ++ (percentage of inhibition of central BZD site binding is greater than 80% in the presence of 1000 nM of the compound)
15 | Cc1ccc(-c2nc3c(Cl)cc(Cl)cn3c2CN2CCCC2=O)cc1 [Compound 116, 1-(6,8-Dichloro-2-p-tolyl-imidazo[1,2-a]pyridin-3-ylmethyl)-pyrrolidin-2-one] | ++ (percentage of inhibition of central BZD site binding is greater than 80% in the presence of 1000 nM of the compound)
16 | Cc1cccn(Cc2c(-c3ccc(Cl)cc3)nc3ccc(Cl)cn23)c1=O [Compound 109, 1-((6-chloro-2-(4-chlorophenyl)H-imidazo[1,2-a]pyridin-3-yl)methyl)-3-methylpyridin-2(1H)-one] | ++ (percentage of inhibition of central BZD site binding is greater than 80% in the presence of 1000 nM of the compound)
17 | Cc1nc(Cc2c(-c3ccc(F)cc3)nc3ccc(F)cn23)no1 [Compound 201, 3-((6-fluoro-2-(4-fluoropnyl)imidazo[1,2-a]pyridin-3-yl)methyl)-5-methyl-1,2,4-oxadiazole] | ++ (percentage of inhibition of central BZD site binding is greater than 80% in the presence of 1000 nM of the compound)
18 | Cc1ccc(-c2nc3ccc(C)cn3c2CNc2ccccn2)cc1 [Compound 140, N-((6-methyl-2-p-tolylH-imidazo[1,2-a]pyridin-3-yl)methyl)pyridin-2-amine] | ++ (percentage of inhibition of central BZD site binding is greater than 80% in the presence of 1000 nM of the compound)
19 | CN(C)CCNc1cncc(Cc2c(-c3ccc(Cl)cc3)nc3ccccn23)n1 [Compound 190, N1-(6-((2-(4-chlorophenyl)imidazo[1,2-a]pyridin-3-yl)methyl)pyrazin-2-yl)-N2,N2-dimethylethane-1,2-diamine] | ++ (percentage of inhibition of central BZD site binding is greater than 80% in the presence of 1000 nM of the compound)
20 | Cc1ccc(-c2nc3ccc(C)cn3c2CN2C(=O)OC(C)(C)C2=O)cc1 [Compound 101, 5,5-dimethyl-3-((6-methyl-2-p-tolylH-imidazo[1,2-a]pyridin-3-yl)methyl)oxazolidine-2,4-dione] | ++ (percentage of inhibition of central BZD site binding is greater than 80% in the presence of 1000 nM of the compound)
21 | NC(=O)c1ncnn1Cc1c(-c2ccc(Cl)cc2)nc2cccnn12 [Compound 89, 1-((2-(4-chlorophenyl)imidazo[1,2-b]pyridazin-3-yl)methyl)-1H-1,2,4-triazole-5-carboxamide] | ++ (percentage of inhibition of central BZD site binding is greater than 80% in the presence of 1000 nM of the compound)
22 | CN1CCN(c2cc(Cc3c(-c4ccc(Cl)cc4)nc4ccccn34)ncn2)CC1 [Compound 244, 2-(4-chlorophenyl)-3-((6-(4-methylpiperazin-1-yl)pyrimidin-4-yl)methyl)imidazo[1,2-a]pyridine] | ++ (percentage of inhibition of central BZD site binding is greater than 80% in the presence of 1000 nM of the compound)
23 | O=C1CCCN1Cc1c(-c2ccc(Cl)cc2)nc2ccc(Cl)cn12 [Compound 112, 1-((6-chloro-2-(4-chlorophenyl)H-imidazo[1,2-a]pyridin-3-yl)methyl)pyrrolidin-2-one] | ++ (percentage of inhibition of central BZD site binding is greater than 80% in the presence of 1000 nM of the compound)
24 | Fc1ccc2nc(-c3ccc(Cl)cc3)c(Cn3cncn3)n2c1 [Compound 55, 3-((1H-1,2,4-triazol-1-yl)methyl)-2-(4-chlorophenyl)-6-fluoroH-imidazo[1,2-a]pyridine] | ++ (percentage of inhibition of central BZD site binding is greater than 80% in the presence of 1000 nM of the compound)
25 | Cc1ccc(-c2nc3ccc(C)cn3c2CSc2cccs2)cc1 [Compound 178, 6-Methyl-3-(thiophen-2-ylsulfanylmethyl)-2-p-tolyl-imidazo[1,2-a]pyridine] | + (percentage of inhibition of central BZD site binding is greater than 50% but less than 80% in the presence of 1000 nM of the compound)
26 | Cc1ccc(-c2nc3ccc(C)cn3c2Cn2cnc(Cl)c2Cl)cc1 [Compound 3, 3-((4,5-Dichloro-1H-imidazol-1-yl)methyl)-6-methyl-2-p-tolylH-imidazo[1,2-a]pyridine] | + (percentage of inhibition of central BZD site binding is greater than 50% but less than 80% in the presence of 1000 nM of the compound)
27 | CNc1nnc(Cc2c(-c3ccc(Cl)cc3)nc3ccccn23)s1 [Compound 235, 5-((2-(4-chlorophenyl)imidazo[1,2-a]pyridin-3-yl)methyl)-N-methyl-1,3,4-thiadiazol-2-amine] | + (percentage of inhibition of central BZD site binding is greater than 50% but less than 80% in the presence of 1000 nM of the compound)
28 | CCOC(=O)c1cn(Cc2c(-c3ccc(Cl)cc3)nc3ccccn23)c(=O)[nH]c1=O [Compound 126, Ethyl 1-((2-(4-chlorophenyl)imidazo[1,2-a]pyridin-3-yl)methyl)-2,4-dioxo-1,2,3,4-tetrahydropyrimidine-5-carboxylate] | − (percentage of inhibition of central BZD site binding is less than 50% in the presence of 1000 nM of the compound)

From patent US8497278B2, “Imidazo[1,2-a]pyridine compounds” (priority 2008, dated 2013)
